Laboratory results: article PMC4551797 (PLoS ONE, 2015)
Like-named read-outs stand apart in the source and are kept apart here.

Assays:
mouse TGR5 = molecular target: T1, mouse TGR5 (Mus musculus, UniProt Q80SS6); test: cAMP production in STC-1 enteroendocrine cells (endogenous TGR5); assay type: cell-based; design: in cells with endogenous levels of receptor; host or cells: STC-1 (mouse enteroendocrine); details: for EC50: STC-1 cells
T1 sequence (Q80SS6 1-329): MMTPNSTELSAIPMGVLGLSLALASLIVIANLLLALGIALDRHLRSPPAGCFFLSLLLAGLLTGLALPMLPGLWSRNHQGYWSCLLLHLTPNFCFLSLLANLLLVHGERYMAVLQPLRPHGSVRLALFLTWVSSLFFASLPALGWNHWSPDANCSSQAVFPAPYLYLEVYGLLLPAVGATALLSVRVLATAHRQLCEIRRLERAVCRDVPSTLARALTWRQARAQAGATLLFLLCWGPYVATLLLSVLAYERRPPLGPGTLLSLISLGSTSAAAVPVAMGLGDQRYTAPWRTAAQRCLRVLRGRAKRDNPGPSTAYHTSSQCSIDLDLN
Description: Both were maintained in Dulbecco’s modified Eagle’s medium (DMEM) containing 10% fetal bovine serum (FBS) and penicillin /streptomycin. Mouse STC-1 cells were obtained from ATCC under agreement with the Cold Spring Harbor Laboratories and maintained in DMEM containing 10% FBS and penicillin /streptomycin. […] NCI-H716 cells were cultured in 96 well plate coated with Matrigel (BD). After 72 hours, cAMP production stimulated with TGR5 agonists was measured using HTRF cAMP assay kit (CISBIO). The level of cAMP in suspensions of STC-1 cells stimulated with increasing concentrations of TGR5 agonists was also determined. After 2 day-culturing, GLP-1 secretion in Matrigel-differentiated NCI-H716 or STC-1 cells was induced by increasing concentrations of TGR5 agonists. The production of GLP-1 was determined using a GLP-1 Assay (7–36) amide kit (Mesoscale Discovery) following the manufacturer’s instructions. For both cAMP and GLP-1, the maximal response for each compound was set to 100% in each cell line.

GPR119 = molecular target: T2, GPR119 (Homo sapiens, UniProt Q8TDV5); test: Selectivity: enteroendocrine GPCR GPR119
T2 sequence (Q8TDV5 1-335): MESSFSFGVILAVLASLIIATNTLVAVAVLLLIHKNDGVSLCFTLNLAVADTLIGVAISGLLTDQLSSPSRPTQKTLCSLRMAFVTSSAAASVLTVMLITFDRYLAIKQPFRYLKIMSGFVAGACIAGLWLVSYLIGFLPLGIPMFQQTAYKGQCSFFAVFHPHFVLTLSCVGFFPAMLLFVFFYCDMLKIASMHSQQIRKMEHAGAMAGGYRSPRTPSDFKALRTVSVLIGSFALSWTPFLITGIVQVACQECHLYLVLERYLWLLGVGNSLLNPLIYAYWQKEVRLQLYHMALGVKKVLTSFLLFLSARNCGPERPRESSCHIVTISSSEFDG

[1] = Plasma compound levels after oral dosing (LC-MS/MS); details: C57BL/6, mouse
NCI-H716 cells = test: GLP-1 secretion in NCI-H716 enteroendocrine cells; assay type: cell-based; details: Homo sapiens
Description: HEK-293 cells were obtained from ATCC and a clonal HEK-293 line overexpressing mouse TGR5 was prepared. Both were maintained in Dulbecco’s modified Eagle’s medium (DMEM) containing 10% fetal bovine serum (FBS) and penicillin /streptomycin. Mouse STC-1 cells were obtained from ATCC under agreement with the Cold Spring Harbor Laboratories and maintained in DMEM containing 10% FBS and penicillin /streptomycin. NCI-H716 cells were obtained from ATCC and were maintained in RPMI-1640 with 10% FBS. NCI-H716 cells were cultured in 96 well plate coated with Matrigel (BD). After 72 hours, cAMP production stimulated with TGR5 agonists was measured using HTRF cAMP assay kit (CISBIO). The level of cAMP in suspensions of STC-1 cells stimulated with increasing concentrations of TGR5 agonists was also determined. […] The production of GLP-1 was determined using a GLP-1 Assay (7–36) amide kit (Mesoscale Discovery) following the manufacturer’s instructions. […]
Compound 18 is a novel small molecule agonist of TGR5 developed by Eli Lilly and Company (MW = 508.62, Fig 2A). […] In order to determine potency of compound 18 for the mouse and human TGR5 receptor in cells with endogenous levels of receptor, we measured compound 18-stimulated cAMP production and GLP-1 secretion in both mouse (STC-1) and human (NCI-H716) enteroendocrine cell lines, that we have shown to express TGR5 natively (Fig 1). […]

## CC(=O)N1CCC(C(C)N(C(=O)COc2cccc3sc4nc(C)cn4c23)c2ccc(F)cc2)CC1 (centres unmarked) [compound 18]
Mouse TGR5; read-out: EC50, cAMP production
  EC50: 580 nM
Mouse TGR5; unit inferred, x-axis in nM, read-out: EC50 STC-1 (Fig 2C inset, cAMP)
  EC50: 580 nM
Mouse TGR5; STC-1 versus NCI-H716 cells
  potency on the mouse versus the human TGR5 receptor: more than 5 fold
GPR119
  EC50: > 125000 nM
[1]; 3 mg/kg
  AUC(0-t): 0.049 µM·h
  Cmax: 59 nM
[1]; 10 mg/kg
  AUC(0-t): 0.507 µM·h
  Cmax: 348 nM
[1]; 30 mg/kg
  AUC(0-t): 1.52 µM·h
  Cmax: 2510 nM
[1]; 100 mg/kg
  AUC(0-t): 14.3 µM·h
  Cmax: 14800 nM
  Tmax: 15 min
NCI-H716 cells
  EC50: 2660 nM
